Drawing on patent US11992012B2, “Diaminotriazine compounds” (BASF SE, priority 2018, dated 2024), this text covers herbicidal activity for twelve compounds.

Each structure is given as a SMILES string.

What all share (format): in vivo
Assay [1] deals with Apera spica-venti. Put plainly: greenhouse pre-emergence herbicidal test. The settings on record: 250 g/ha, scale 0 to 100. The method, boiled down: (§1)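 Seeds sown in loamy sand (~3.0% humus); compounds suspended or emulsified in water, sprayed directly after sowing, pots covered until rooting. Kept at 10-25° C. or 20-35° C. by species for 2 to 4 weeks. Damage scored visually 0-100 (100 = no emergence or complete aerial destruction).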

The subject of assay [2] is Echinocloa crus-galli. Put plainly: greenhouse pre-emergence herbicidal test. The settings on record: 250 g/ha, scale 0 to 100. The essentials: as §1
The subject of assay [3] is Setaria faberi. The experiment in a line: greenhouse pre-emergence herbicidal test. The settings on record: 250 g/ha, scale 0 to 100. The method, boiled down: (§2)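 Compounds suspended or emulsified in water were sprayed onto loamy sand (about 3.0% humus) right after sowing; pots were hooded until rooting. Damage was scored on a 0–100 scale (100 = no emergence or complete aerial destruction, 0 = normal growth) after 2 to 4 weeks.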

Assay [4] has as its system Lolium multiflorum. Put plainly: greenhouse pre-emergence herbicidal test. The settings on record: 250 g/ha, scale 0 to 100. The method, boiled down:
as §1

The test system of assay [5] is Alopercurus myosuroides. The experiment in a line: greenhouse pre-emergence herbicidal test. The settings on record: 250 g/ha, scale 0 to 100. The method, boiled down: as §1
The subject of assay [6] is Abutilon theophrasti. Put plainly: greenhouse pre-emergence herbicidal test. The settings on record: 250 g/ha, scale 0 to 100. The essentials:
as §2

Assay [7] has as its system Abutilon theophrasti. The experiment in a line: greenhouse post-emergence herbicidal test. The settings on record: scale 0 to 100. The source says:
(§3) The culture containers used were plastic flowerpots containing loamy sand with approximately 3.0% of humus as the substrate. The seeds of the test plants were sown separately for each species.
(§4) For the post-emergence treatment, the test plants were first grown to a height of 3 to 15 cm, depending on the plant habit, and only then treated with the active ingredients which had been suspended or emulsified in water. For this purpose, the test plants were either sown directly and grown in the same containers, or they were first grown separately as seedlings and transplanted into the test containers a few days prior to treatment.
(§5) Depending on the species, the plants were kept at 10-25° C. or 20-35° C., respectively.
(§6) The test period extended over 2 to 4 weeks. During this time, the plants were tended, and their response to the individual treatments was evaluated.
(§7) Evaluation was carried out using a scale from 0 to 100. 100 means no emergence of the plants, or complete destruction of at least the aerial moieties, and 0 means no damage, or normal course of growth. A moderate herbicidal activity is given at values of at least 60, a good herbicidal activity is given at values of at least 70, and a very good herbicidal activity is given at values of at least 85.

Assay [8] concerns Amaranthus retroflexus. Put plainly: greenhouse post-emergence herbicidal test. The settings on record: 250 g/ha, scale 0 to 100.
Source text: as §3, §4, §5, §6, §7

Assay [9] has as its system Amaranthus retroflexus. Put plainly: greenhouse pre-emergence herbicidal test. The settings on record: 250 g/ha, scale 0 to 100. The method, boiled down:
as §1

Assay [10] has as its system Echinocloa crus-galli. Put plainly: greenhouse post-emergence herbicidal test. The settings on record: 125 g/ha, scale 0 to 100.
Source text: as §3, §4, §5, §6, §7

For assay [11], the system named is Setaria viridis. The experiment in a line: greenhouse post-emergence herbicidal test. The settings on record: 125 g/ha, scale 0 to 100.
Source text: as §3, §4, §5, §6, §7

As to `CC(C)(F)c1nc(N)nc(Nc2c(F)cccc2OCc2cccc(OCC(F)(F)F)c2)n1` [Example 134], the figures for the herbicidal activity in assay [1], in assay [2] and in [3] were 95%, 90% and 90%, respectively.

For the compound `Cc1ccc(COc2cccc(F)c2Nc2nc(N)nc(C(C)(C)F)n2)cc1F` [Example 56], the herbicidal activity in assay [2] is on record as 95%; in assay [4], 100%.

In the case of `CC(C)(F)c1nc(N)nc(Nc2c(F)c(F)cc(F)c2OCc2cccc(F)c2)n1` [Example 204], the herbicidal activity in [5], in [2], in assay [6] and in assay [3] was 100% each time.

Turning to `Cc1cscc1COc1cccc(F)c1Nc1nc(N)nc(C(C)(C)F)n1` [Example 111], the herbicidal activity in assay [1] came out at 80%; in assay [2], 85%; in assay [7] (250 g/ha) it was 100%; in [8], 100%.

Regarding `CC(C)(F)c1nc(N)nc(Nc2c(F)c(F)cc(F)c2OCc2ccccc2Cl)n1` [Example 206], the herbicidal activity in [5], in assay [2], in [6] and in [3] was 100% in each case.

In the case of `CC(C)(F)c1nc(N)nc(Nc2c(F)cccc2OCc2cc(Cl)sc2Cl)n1` [Example 112], the herbicidal activity in assay [1] is reported as 80%; in [2], 80%; in assay [7] (250 g/ha), 100%; in assay [8], 100%.

As to `CCc1ccc(COc2c(F)cc(F)c(F)c2Nc2nc(N)nc(C(C)(C)F)n2)cc1` [Example 216], the results for the herbicidal activity in [5], in [6] and in [3] were 98%, 100% and 100%, respectively.

On to `Cc1cc(COc2cccc(F)c2Nc2nc(N)nc(C(C)(C)F)n2)c(C)s1` [Example 125], for which the herbicidal activity is on record as 85% in [1] and 100% in assay [2].

As for `COc1ccccc1COc1c(F)cc(F)c(F)c1Nc1nc(N)nc(C(C)(C)OC)n1` [Example 214], the herbicidal activity in assay [5] turned out to be 98%; in [6], 100%; in assay [3] it was 90%.

On to `CC(C)(F)c1nc(N)nc(Nc2c(F)cccc2OCc2cccc(OC(F)(F)F)c2)n1` [Example 136], for which the values for the herbicidal activity in assay [1], in assay [2] and in assay [3] were 80%, 85% and 80%, respectively.

For the compound `CC(C)(F)c1nc(N)nc(Nc2c(F)cccc2OCc2ccsc2C#N)n1` [Example 121], the values for the herbicidal activity in [9], in assay [7] (250 g/ha) and in assay [8] were 80%, 100% and 100%, respectively.

As to `CC(C)(F)c1nc(N)nc(Nc2c(F)cccc2OCc2ccccc2[N+](=O)[O-])n1` [Example 28], the herbicidal activity came out at 75% in [7] (125 g/ha), 85% in [10] and 75% in [11].
